Data reported in patent US20210009549A1, “CANNABINOID DERIVATIVES AND CONJUGATES AND USES THEREOF” ([…] LTD., priority 2018, published 2021).

Experiments:
[1] = rodents; systemic and intrathecal administration; cited from earlier work
human α1 GlyR = biological target: T1, human α1 GlyR (Homo sapiens, UniProt P23415); assay: Whole-cell patch clamp, modulation of α1 GlyR-regulated ion channel currents; assay type: cell-based; conditions: HEK293 cells stably expressing human α1 GlyR; EC2 glycine (1 μM); holding potential −40 mV; room temperature
T1 construct: expressed in transfected cells
T1 sequence (P23415 29-457): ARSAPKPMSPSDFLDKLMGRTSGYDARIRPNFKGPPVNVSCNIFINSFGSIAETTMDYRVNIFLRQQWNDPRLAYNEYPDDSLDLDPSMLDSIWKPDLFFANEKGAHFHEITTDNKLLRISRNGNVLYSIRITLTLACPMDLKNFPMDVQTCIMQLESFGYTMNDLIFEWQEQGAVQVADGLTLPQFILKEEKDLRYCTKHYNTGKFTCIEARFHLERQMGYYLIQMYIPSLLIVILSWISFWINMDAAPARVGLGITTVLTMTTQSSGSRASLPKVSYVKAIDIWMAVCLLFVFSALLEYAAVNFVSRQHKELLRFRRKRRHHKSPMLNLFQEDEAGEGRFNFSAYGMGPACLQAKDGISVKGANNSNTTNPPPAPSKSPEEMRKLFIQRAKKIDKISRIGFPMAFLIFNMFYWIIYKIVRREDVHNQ
Method: (§1) Currents were recorded by whole-cell patch clamp on HEK293 cells that stably expressed either the human α1 or α3 GlyRs. Cells were cultured on glass coverslips and placed into the recording chamber which was perfused by the standard extracellular solution containing (in mM): 140 NaCl, 5 KCl, 2 CaCl2), 1 MgCl2, 10 HEPES/NaOH and 10 glucose (pH 7.4 adjusted with NaOH). For HEK293 cell recordings we employed an intracellular solution consisting of (mM): 145 CsCl, 2 CaCl2), 2 MgCl2, 10 HEPES and 10 EGTA (pH 7.4 adjusted with CsOH; osmolarity 290 mOsm). HEK293 cell recordings were performed at a holding potential of −40 mV. Solutions were applied to cells via gravity induced perfusion via parallel microtubules under micromanipulator control with a solution exchange time of <250 ms. Experiments were conducted at room temperature (20-22° C.). Due to the irreversible nature of the drug actions, only one cell was tested per coverslip.
(§2) Patch pipettes were fabricated from borosilicate hematocrit tubing (Hirschmann Laborgerate, Eberstadt, Germany) and heat polished. Pipettes had tip resistances of […]. Membrane currents were recorded using an Axopatch 200B amplifier and a Digidata 1440 analog-to-digital converter under control of pClamp10 software (Molecular Devices). Currents were filtered at 500 Hz and digitized at 2 KHz.
(§3) After a stable whole cell recording was obtained, EC2 and saturating glycine concentrations activated currents with the anticipated magnitudes were verified. At al and α3 GlyRs, EC2 current magnitudes generally required glycine concentrations of 1 and 80 μM, respectively. The saturating concentration was invariably 2 mM. The standard experimental protocol involved EC2 glycine application for […] every 1 minute. When glycine was not being applied, the cells were continually and directly exposed to flowing drug solution. After 5 minutes of alternate applications of drug and EC2 glycine, 2 mM glycine was briefly applied every 2 minutes. Regular applications of saturating glycine after the 5 minute time point tended to enhance the drug-induced current magnitude effect further.
(§4) The effects of cannabinoid derivatives on al GlyR and α3 GlyR-regulated ion channel currents, as assessed by the patch clamp method, are indicated in Table 6.

human α3 GlyR = biological target: T2, human α3 GlyR (Homo sapiens, UniProt O75311); assay: Whole-cell patch clamp, modulation of α3 GlyR-regulated ion channel currents; assay type: cell-based; conditions: for A3 GlyR (fold increase): HEK293 cells stably expressing human α3 GlyR, EC2 glycine (80 μM), holding potential −40 mV, room temperature
T2 construct: expressed in transfected cells
T2 sequence (O75311 34-464): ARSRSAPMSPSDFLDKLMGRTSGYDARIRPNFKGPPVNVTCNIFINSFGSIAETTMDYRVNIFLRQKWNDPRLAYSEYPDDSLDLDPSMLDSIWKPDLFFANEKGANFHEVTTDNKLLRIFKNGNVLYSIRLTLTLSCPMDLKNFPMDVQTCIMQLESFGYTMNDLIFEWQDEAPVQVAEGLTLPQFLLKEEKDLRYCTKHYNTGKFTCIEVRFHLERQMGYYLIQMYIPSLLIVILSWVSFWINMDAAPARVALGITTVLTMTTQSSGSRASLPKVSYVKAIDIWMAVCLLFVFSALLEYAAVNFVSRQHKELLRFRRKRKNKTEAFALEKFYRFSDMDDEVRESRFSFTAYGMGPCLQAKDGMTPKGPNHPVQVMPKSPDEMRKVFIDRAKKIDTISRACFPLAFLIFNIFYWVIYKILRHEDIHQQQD
Method: as §1, §2, §3, §4

hippocampal neurons = conditions: cited from earlier work
presynaptic GlyR = conditions: brainstem and spinal cord of hyperekplexic mutant mice; cited from earlier work

Row | Compound | α1 GlyR (fold increase) (human α1 GlyR) | A3 GlyR (fold increase) (human α3 GlyR) [fold] | other results
1 | C=C(C)[C@@H]1CCC(C)=C[C@H]1c1c(O)cc(CCCCC)cc1O [CBD, cannabidiol] |  |  | Analgesic tolerance [1]: without causing apparent analgesic tolerance; Suppression of chronic inflammatory and neuropathic pain [1]: significantly suppresses chronic inflammatory and neuropathic pain
2 | 7-OH-Desoxy-CBD [Compound 119] | no effect |  | 
3 | CCCCCc1ccc2c(c1)OC(C)(C)C1CCC(C)=CC21 (stereo not drawn) [desoxy-THC] | 11.2 fold | 4.7 | 
4 | C=C(C)C1CCC(C)=CC1c1ccc(C(C)(C)CCC)cc1O (stereo not drawn) [Compound 103, 1,1-dimethylbutyl desoxy CBD] | 4 fold | 10 | 
5 | C=C(C)[C@@H]1CCC(C)=C[C@H]1c1c(O)cc(CC2CN(C(C)=O)C2)cc1O [KLS-13019] |  |  | Potency relative to CBD (hippocampal neurons; more potent than CBD): 50 fold; Safety relative to CBD (hippocampal neurons; safer than CBD): > 400 fold
6 | CCCCCCC(C)(C)c1ccc2c(c1)OC(C)(C)C1CCC(C)=CC21 (stereo not drawn) [Compound 148, 1,1-DMH-desoxy THC] | 4.2 fold | 4 | 
7 | C=C(C)C1CCC(C)=CC1c1ccc(C(C)(C)CCCCCC)cc1O (stereo not drawn) [Compound 101, 1,1-dimethylheptyl desoxy CBD] | 13 fold | 5 | 
8 | C=C(C)C1CCC(C)=CC1c1ccc(C(C)C(C)CCCCC)cc1O (stereo not drawn) [Compound 102, 1,2-dimethylheptyl-desoxy CBD] | no effect | 18 | Selectivity α3 GlyR versus α1 GlyR (human α3 GlyR; comparison of patch clamp effects on α1 and α3 GlyR): highly selective towards α3 GlyR
9 | C=C(C)[C@@H]1CCC(C)=C[C@H]1c1ccc(CCCCC)cc1O [desoxy-CBD, dehydroxylcannabidiol] | 26.7 fold | 4.6 | Analgesic tolerance [1]: without causing apparent analgesic tolerance; Suppression of chronic inflammatory and neuropathic pain [1]: significantly suppresses chronic inflammatory and neuropathic pain; Rescue of impaired presynaptic GlyR activity and diminished glycine release (presynaptic GlyR): selectively rescues impaired presynaptic GlyR activity and diminished glycine release
